From ChEMBL document CHEMBL4145551, “Mitochondria-targeting indolizino[3,2-c]quinolines as novel class of photosensitizers for photodynamic anticancer activity” (Eur J Med Chem, 2018)
Active and inactive are the calls of the source. The calls are words filed in the database; no cut-off is given here.

Columns and labels:
MCF7 = assay: Photocytotoxicity against human MCF7 cells assessed as reduction in cell viability preincubated for 1 hr followed blue LED light irradiation for 5 mins and measured after 24 hrs by MTT assay; type: functional, cell-based
HeLa [1] = assay: Photocytotoxicity against human HeLa cells assessed as reduction in cell viability preincubated for 1 hr followed blue LED light irradiation for 10 mins and measured after 24 hrs by MTT assay; type: functional, cell-based
[2] = Dark toxicity in human A549 cells assessed as reduction in cell viability up to 10 uM measured after 24 hrs by MTT assay; type: cell-based; conditions: a549, 24 h
DNA [3] = assay: Induction of Escherichia coli pBR322 DNA cleavage at 20 uM irradiated with blue LED light after 30 mins in presence of H2O2 scavenger KI by agarose gel electrophoresis method; type: nucleic-acid assay
[4] = Drug uptake in human HeLa cell nucleus at 10 uM after 1 hr by mitotracker red staining based confocal laser scanning microscopic method; type: ADME, subcellular
[5] = Drug uptake in human HeLa cell mitochondria at 10 uM after 1 hr by mitotracker red staining based confocal laser scanning microscopic method; type: ADME
HeLa [6] = assay: Photocytotoxicity against human HeLa cells assessed as induction of mitochondrial damage by measuring mitochondrial swelling at 10 uM preincubated for 1 hr followed by 488 nanometer laser light irradiation up to 6 mins by mitotracker red staining based confocal laser scanning microscopic method; type: functional, cell-based
HeLa [7] = assay: Photocytotoxicity against human HeLa cells assessed as cytoplasmic shrinkage at 10 uM preincubated for 1 hr followed by 488 nanometer laser light irradiation and measured after 8 to 10 mins by confocal microscopic method; type: functional, cell-based
DNA [8] = assay: Binding affinity to Escherichia coli pBR322 DNA assessed as increase in test compound fluorescence up to 10 uM after 30 mins under blue LED light irradiation relative to control; type: nucleic-acid assay
DNA [9] = assay: Binding affinity to Escherichia coli pBR322 DNA assessed as increase in test compound fluorescence irradiated with blue LED light for 5 to 20 mins; type: nucleic-acid assay
HeLa [10] = assay: Photocytotoxicity against human HeLa cells assessed as increase in cleaved caspase-3 protein expression preincubated for 1 hr followed by blue LED light irradiation for 10 mins and measured after 18 hrs by Western blot analysis; type: functional, cell-based
[11] = Dark toxicity in human HeLa cells assessed as morphological changes at 10 uM measured after 14 hrs by propidium iodide staining based fluorescence microscopic method; type: cell-based
HeLa [12] = assay: Photocytotoxicity against human HeLa cells assessed as DNA fragmentation up to 10 uM preincubated for 1 hr followed by blue LED light irradiation for 5 mins and measured after 13 hrs by Hoechst 33258 staining based fluorescence microscopic method; type: functional, cell-based
HeLa [13] = assay: Photocytotoxicity against human HeLa cells assessed as cell shrinkage at 20 uM preincubated for 1 hr followed by blue LED light irradiation for 10 mins and measured after 2.5 hrs by holotomographic method; type: functional, cell-based
HeLa [14] = assay: Photocytotoxicity against human HeLa cells assessed as cell rounding at 5 uM preincubated for 1 hr followed by blue LED light irradiation for 10 to 30 mins and measured after 2.5 hrs by holotomographic method; type: functional, cell-based
HeLa [15] = assay: Photocytotoxicity against human HeLa cells assessed as cell rounding at 20 uM preincubated for 1 hr followed by blue LED light irradiation for 10 mins and measured after 2.5 hrs by holotomographic method; type: functional, cell-based
HeLa [16] = assay: Photocytotoxicity against human HeLa cells assessed as membrane protrusion at 5 uM preincubated for 1 hr followed by blue LED light irradiation for 10 to 30 mins and measured after 2.5 hrs by holotomographic method; type: functional, cell-based

Compound: Cc1cccn2c1cc1c3ccccc3nc(-c3ccco3)c12
- Activity (MCF7): Dose-dependent effect
- IC50 (MCF7; MCF7, light or radiation study): 2390 nM
- Activity (HeLa [1]): Dose-dependent effect
- IC50 (HeLa [1]; light or radiation study): 1120 nM
- Activity [2]: Non-Toxic
- Activity (DNA [3]): inactive
- Drug uptake [4]: Not Active
- Drug uptake [5]: Active
- Activity (HeLa [6]): Active
- Activity (HeLa [7]): Active
- fold change (FC) (DNA [8]): < 4
- Activity (DNA [9]): Active
- Activity (HeLa [10]): Dose-dependent effect
- Activity [11]: Non-Toxic
- Activity (HeLa [12]): Active
- Activity (HeLa [13]): Active
- Activity (HeLa [14]): Active
- Activity (HeLa [15]): Active
- Activity (HeLa [16]): Active
